Measurements taken from US20190212343A1, “METHODS FOR THE TREATMENT OF DISORDERS RELATED TO PHOSPHORYLATION OF HISTONES” (H. LEE MOFFITT CANCER CENTER AND RESEARCH INSTITUTE, INC., priority 2014, published 2019).
“Also recorded” adds a separate entry of the source.

Columns and labels:
ACK1 = target: T1, ACK1 (Homo sapiens, UniProt Q07912); test: In vitro kinase assay with purified ACK1 and H4, immunoblotting with pTyr antibodies; assay type: biochemical; settings: purified ACK1 and H4, AIM-100 100 nM
T1 construct: made in house; host or cells: insect cells
T1 sequence (Q07912 whole entry): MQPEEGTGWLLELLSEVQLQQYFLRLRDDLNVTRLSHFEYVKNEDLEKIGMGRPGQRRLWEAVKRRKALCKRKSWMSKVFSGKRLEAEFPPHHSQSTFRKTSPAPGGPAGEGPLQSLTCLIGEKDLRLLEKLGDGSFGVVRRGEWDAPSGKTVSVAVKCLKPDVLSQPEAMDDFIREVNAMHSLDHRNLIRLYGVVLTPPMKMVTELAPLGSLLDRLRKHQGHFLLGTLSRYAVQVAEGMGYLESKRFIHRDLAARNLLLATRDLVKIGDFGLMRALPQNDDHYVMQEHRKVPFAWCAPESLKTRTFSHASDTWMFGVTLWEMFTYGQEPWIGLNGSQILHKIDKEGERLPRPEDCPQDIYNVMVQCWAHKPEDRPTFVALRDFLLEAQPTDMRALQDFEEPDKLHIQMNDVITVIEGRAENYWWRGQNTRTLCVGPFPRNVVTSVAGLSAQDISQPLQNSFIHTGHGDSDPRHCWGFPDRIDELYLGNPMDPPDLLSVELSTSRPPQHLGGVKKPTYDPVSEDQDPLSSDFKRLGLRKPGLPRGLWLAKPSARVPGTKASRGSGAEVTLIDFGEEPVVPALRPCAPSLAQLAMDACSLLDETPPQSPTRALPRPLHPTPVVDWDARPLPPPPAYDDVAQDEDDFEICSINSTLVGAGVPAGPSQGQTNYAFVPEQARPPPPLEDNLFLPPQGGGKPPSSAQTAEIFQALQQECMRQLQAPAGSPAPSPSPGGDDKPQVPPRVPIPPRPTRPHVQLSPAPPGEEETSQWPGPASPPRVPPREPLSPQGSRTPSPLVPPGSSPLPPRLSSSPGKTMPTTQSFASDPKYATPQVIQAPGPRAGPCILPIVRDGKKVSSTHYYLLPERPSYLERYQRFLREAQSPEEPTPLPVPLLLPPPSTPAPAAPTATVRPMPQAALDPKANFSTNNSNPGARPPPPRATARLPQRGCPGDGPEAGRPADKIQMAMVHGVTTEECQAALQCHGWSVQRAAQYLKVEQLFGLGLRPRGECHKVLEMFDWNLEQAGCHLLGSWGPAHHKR
Description: FIGS. 9A-9E show ACK1 phosphorylates histone H4 at Tyrosine 88. (FIG. 9A) peptide were spotted followed by immunoblotting with indicated antibodies. (FIG. 9B) Equimolar amounts of purified ACK1 and H4 proteins were incubated in the presence of AIM-100 (100 nM) and reaction subjected to immunoblotting with pTyr antibodies. (FIG. 9C) In vitro kinase assay performed using purified ACK1 and H4, followed by immunoblotting with pY88-H4 antibodies. (FIG. 9D) H4 Y88-phosphorylation in vivo. LNCaP cells were treated with DZI-067, AIM-100 or Enzalutamide (7 uM, 16 hrs). The nuclear lysates were immunoprecipitated with pY88-H4 antibodies followed by immunoblotting with H4. Lower panel is input lysate. (FIG. 9E) LNCaP cells were treated with Crizotinib (1 uM, 16 hrs). The cell lysates were immunoprecipitated with pY88-H4 antibodies followed by immunoblotting with H4 (upper panel). Lower panel is input lysate immunblotted with H4 antibodies.
To assess direct binding of Ack1 to H4, in vitro kinase assay was performed using purified Ack1 and H4 (New England Biolabs). Human Ack1 were expressed in insect cells and purified to homogeneity (unpublished data). Immunoblotting with pY88-H4 and pTyr antibodies confirmed that indeed H4 is directly Tyr-phosphorylated by Ack1 (FIG. 9B).

[1] = system: histone H3 Tyr99-phosphorylation (ACK1); test: Histone H3 Tyr99-phosphorylation in HEK293 cells (pY99-H3 immunoprecipitation / H3 immunoblot); assay type: cell-based; settings: HEK293 cells
Description: FIGS. 3A-3E show Ack1 phosphoryltes H3 at Tyr99 residue. […] (FIG. 3B) HEK293 cells co-expressing Myc-tagged Ack1 (WT) or KD mutant ACK1 and FLAG-tagged H3 or Y99F mutant […] were serum-starved (24h) and lysates were immunoprecipitated with pY99-H3 antibodies followed by immunoblotting with FLAG antibody (top panel). (FIG. 3C) HEK293 cells were treated with EGF ligand for indicated time points. Equal amounts of lysates were immunoprecipitated pY99-H3 antibodies followed by with immunoblotting with H3 antibody (top panel). (FIG. 3D) HEK293 cells were treated with ACK1 inhibitor, AIM-100 (5 uM overnight) and/or EGF ligand 20 min. Equal amounts of lysates were immunoprecipitated pY99-H3 antibodies followed by with immunoblotting with H3 antibody (top panel). […] (FIG. 3E) HEK293 cells were treated with increasing concentrations of AIM-100 (1, 2, 3 and 5 μM). Equal amounts of lysates were immunoprecipitated pY99-H3 antibodies followed by with immunoblotting with H3 antibody (top panel).
The Tyrosine99 or Y99 site in H3 protein is evolutionarily conserved (FIG. 3A). To examine whether H3 is ACK1 kinase substrate, HEK293 cells were co-transfected with HA-tagged ACK1 and FLAG-tagged H3 or FLAG-tagged Y99F mutant H3 expressing constructs. ACK I specifically phosphorylated H3 protein, but not the Y99F mutant protein (FIG. 3B). […]

[2] = system: histone H3 Tyr99-phosphorylation (ACK1); test: Histone H3 Tyr99-phosphorylation in JAR cells (immunoblotting); assay type: cell-based, human; settings: EGF+AIM-100
Description: FIGS. 5A-5D show ACK1 deposits pY99-H3 epigenetic marks in SLC6A4 promoter and intron 2. (FIG. 5A) Lysates prepared from JAR cells treated with EGF ligand were subjected to immunoblotting with indicated antibodies. (FIG. 5B) Lysates prepared from JAR cells treated with EGF or AIM-100 were subjected to immunoblotting with indicated antibodies. (FIG. 5C) Total RNA was prepared from JAR cells untreated or treated with EGF ligand followed by quantitative RT-PCR using SLC6A4 and actin primers. The ratio of SLC6A4 to actin is shown. (FIG. 5D) JAR cells were treated with EGF ligand and ChIP was performed using pY99-H3 antibodies followed by quantitative PCR using primers corresponding to intron 2 (VNTR).
JAR cells are human placenta-derived epithelial cells that express SLC6A4 or SERT. Applicant first assessed presence of ACK1 signaling in JAR cells by treating these cells with EGF ligand. […] ACK1 activation was also reflected in histone H3 Tyr99-phosphorylation (FIG. SA, 2nd panel).
To validate critical role of ACK1 in histone H3 Tyr99-phosphoryation, JAR cells were treated with EGF or EGF+AIM-100.

AR protein levels = AR protein levels in androgen deprived prostate cancer cells (immunoblotting); assay type: cell-based, human; settings: androgen deprived LNCaP and VCaP cells, 2.5, 5 and 10 uM
Description: (FIG. 6A) Androgen starved LAPC4 cells were treated with DHT (10 nM, 16 Hrs), AIM-100, DZI-067, Enzalutamide or PLX4032 (7 uM, 36 Hr) and AR, pACK1 and Actin levels were determined by immunoblotting (IB). The relative level of AR is shown below. (FIG. 6B) Androgen deprived LNCaP and VCaP cell were untreated or treated with 2.5, 5 and 10 uM of AIM-100 and lysates were immunoblotted. The quantitation of AR expression is shown. (FIG. 6C) Androgen deprived LNCaP and VCaP cell were untreated or treated with 2.5, 5 and 10 uM of DZI-067 and lysates were immunoblotted. The quantitation of AR expression is shown. (FIG. 6D) LNCaP cells were transfected with control and Ack1 siRNAs followed by immunoblotting. (FIG. 6E) LNCaP cells treated with AIM-100 (7 uM, 16 hr) or MG 132 (10 uM, 6 hr) were immunoblotted with AR antibodies. […]
AR has been known to interact with an ubiquitin E3 ligase, RNF6, causing AR ubiquitination, which in turn promoted AR transcriptional activity (Xu, K. et al. (2009) Cancer Cell 15(4):270-282). To determine whether post-translational modification has role to play in suppression of AR levels upon Ack1 kinase inhibition, LNCaP cells were treated with proteosomal inhibitor, MG-132 and AR levels were measured in presence or absence of AIM-100.

## c1ccc(-c2oc3ncnc(NC[C@@H]4CCCO4)c3c2-c2ccccc2)cc1 [AIM-100]
ACK1
  H4 Tyr-phosphorylation by ACK1: H4 Tyr-phosphorylation is abrogated
[1]; increasing concentrations of inhibitor
  concentration resulting in complete loss of pY99-H3: 0.5 μM
[1]; inhibitor 5 uM overnight, EGF ligand 20 min
  histone H3 Tyr99-phosphorylation: complete loss of histone H3 Tyr99-phosphorylation; also recorded: suppressed histone H3 Tyr99-phosphorylation
[2]
  histone H3 Tyr99-phosphorylation: almost complete loss of histone phosphorylation
AR protein levels
  AR protein levels: concomitant decrease in AR protein levels
